In paper PMC4704022, “Insights on FXR selective modulation. Speculation on bile acid chemical space in the discovery of potent and selective agonists” (Scientific Reports, 2016):
“Also recorded” adds a separate entry of the source.

Columns and labels:
FXR-LBD = biological target: T1, FXR-LBD (Homo sapiens, UniProt Q96RI1); assay: Alphascreen coactivator recruitment assay, FXR-LBD with SRC-1 peptide; type: biochemical; settings: ligand at 2 μM, effect of 6 set as 100%
T1 construct: 10 nM of purified GST-tagged FXR-LBD protein
T1 sequence (Q96RI1 262-486 limits assumed): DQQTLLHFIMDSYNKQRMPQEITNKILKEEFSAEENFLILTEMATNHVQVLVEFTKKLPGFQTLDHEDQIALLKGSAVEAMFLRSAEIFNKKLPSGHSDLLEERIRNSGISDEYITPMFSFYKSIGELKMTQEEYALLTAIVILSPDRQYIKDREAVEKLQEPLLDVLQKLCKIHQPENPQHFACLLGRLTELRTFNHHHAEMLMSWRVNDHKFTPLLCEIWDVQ
Experimental: Figure 7 Coactivator recruitment assay measuring a direct interaction of FXR with SRC-1. Anti-GST-coated acceptor beads captured GST-fusion FXR-LBD and the biotinylated-SRC-1 peptide was captured by the streptavidin donor beads. FXR-LBD recruited SRC-1 in the presence of ligand at 2 μM and, upon illumination at 680 nm, chemical energy is transferred from donor to acceptor beads across the complex streptavidin-donor/Src-1-biotin/ligand/GSTFXR-LBD/anti-GST-acceptor and a signal is produced. Results are expressed as percentage of the effect of 6 arbitrarily settled as 100%. NT is referred to the experiment carried out in absence of ligand. Results are expressed as mean ± standard error.
The relative potency of selected members of this novel family was then investigated by a detailed measurement of concentration-response curve of the 3-deoxy sulfate derivative 9, the corresponding carboxylic acid 10, and the 3β-hydroxyl alcohol 15 and carboxylic acid derivative 17, all sharing the 6α/7α configuration, on FXR transactivation. […] In this assay, the ligand induces the recruitment of the coactivator to the LBD of hFXR.
Anti-GST-coated acceptor beads were used to capture the GST-fusion FXR-LBD, whereas the biotinylated-SRC-1 peptide was captured by the streptavidin donor beads. Upon illumination at 680 nm, chemical energy is transferred from donor to acceptor beads across the complex streptavidin-donor/Src-1-biotin/GSTFXR-LBD/anti-GST-acceptor and a signal is produced. The assay was performed in white, low-volume, 384-well Optiplates (PerkinElmer) using a final volume of 25 μL containing final concentrations of 10 nM of purified GST-tagged FXR-LBD protein, 30 nM biotinylated Src-1 peptide, 20 μg/mL anti-GST acceptor beads acceptor beads, and 10 μg/mL of streptavidin donor bead (PerkinElmer). The assay buffer contained 50 mM Tris (pH 7.4), 50 mM KCl, 0.1% BSA, and 1 mM DTT. […] After the addition of the detection mix (acceptor and donor beads), the plates were incubated in the dark for 4 h at room temperature and then were read in an Envision microplate analyzer (PerkinElmer).

[1] = tested on: FXR target genes (OSTα, SHP, BSEP); assay: In vivo effect on FXR target genes in mouse liver (Real-Time PCR); design: species or system C57BL6 mice; settings: mice, 15 mg/kg ip, 6 h, versus control mice
Experimental: Figure 10 In vivo effect of 10 on FXR target genes. C57BL6 mice were administered with 10 (15 mg/Kg) for 6 h. After treatment liver were removed and the relative mRNA expression of OSTα, SHP and BSEP was assayed by quantitative Real-Time PCR. *p < 0.05 versus control mice.
C57BL6 mice were administered with compound 10 (15 mg/kg, ip). At 6 h post-treatment, livers and blood were collected.
Total RNA was extracted using the TRIzol reagent (Life Technologies). First, 1 μg of RNA was purified of the genomic DNA by DNase I treatment (Life Technologies) and random reverse-transcribed with Superscript II (Life Technologies) in a 20 μL reaction volume. Then 10 ng of cDNA was amplified in a final volume of 20 μL in a mix containing 200 nM of each sense/antisense primers and 10 μL of 2× SYBR Select Master mix (Life Technologies). RT-PCR reactions were performed in duplicate and the thermal cycling conditions were: 2 min at 95 °C, followed by 40 cycles of 95 °C for 20 s, 60 °C for 30 s on Step One Plus Instrument (ABI). The relative mRNA expression was calculated and expressed as 2^−(ΔΔCt). Sense and antisense primer sequences were the following: mouse GAPDH, […] and […]; mOSTα, […] and […]; mBSEP, […] and […]; mSHP, […] and […].

CC[C@H]1[C@@H](O)[C@@H]2[C@H](CC[C@]3(C)[C@@H]([C@H](C)CCC(=O)O)CC[C@@H]23)[C@@]2(C)CCCC[C@@H]12 [compound 10, 6α-ethyl-7α-hydroxy-5β-cholan-24-oic acid]
Recruitment of SRC-1 coactivator to FXR-LBD (in words) (FXR-LBD): very potent activity in the recruitment of SRC-1 co-activator
Relative mRNA expression of BSEP in liver [1]: significantly up-regulated; also recorded: increased the expression
Relative mRNA expression of OSTα in liver [1]: significantly up-regulated; also recorded: increased the expression
Relative mRNA expression of SHP in liver [1]: significantly up-regulated; also recorded: increased the expression
